row,SMILES,logP
1,Clc1cc(Cl)c(-c2ccc(Cl)c(Cl)c2Cl)cc1Cl,6.72
2,Clc1ccc(Cl)c(-c2ccccc2Cl)c1,5.34
3,Clc1cc(Cl)c(-c2ccc(Cl)c(Cl)c2)c(Cl)c1,6.4
4,Clc1ccc(-c2c(Cl)c(Cl)cc(Cl)c2Cl)cc1,6.39
5,Clc1cc(Cl)c(-c2ccccc2Cl)c(Cl)c1,5.75
6,Clc1cccc(-c2cccc(Cl)c2)c1,5.27
7,Clc1ccc(Cl)c(-c2c(Cl)c(Cl)c(Cl)c(Cl)c2Cl)c1,6.99
8,Clc1ccc(Cl)c(-c2ccccc2)c1Cl,5.44
9,Clc1cc(-c2cc(Cl)c(Cl)c(Cl)c2Cl)c(Cl)c(Cl)c1Cl,7.62
10,Clc1cccc(-c2cc(Cl)c(Cl)c(Cl)c2Cl)c1,6.92
11,Clc1ccc(-c2cc(Cl)c(Cl)cc2Cl)c(Cl)c1,6.41
12,Clc1cc(Cl)c(-c2c(Cl)cc(Cl)c(Cl)c2Cl)c(Cl)c1Cl,7.21
13,Clc1ccc(-c2ccccc2)c(Cl)c1,5.16
14,Clc1ccc(Cl)c(-c2ccccc2)c1,5.1
15,Clc1cc(Cl)cc(-c2ccccc2)c1,5.41
16,Clc1cccc(-c2ccccc2)c1Cl,4.99
17,Clc1ccc(-c2cc(Cl)c(Cl)cc2Cl)cc1,6.1
18,Clc1cc(Cl)c(-c2c(Cl)c(Cl)c(Cl)c(Cl)c2Cl)c(Cl)c1,7.48
19,Clc1ccc(Cl)c(-c2cc(Cl)c(Cl)cc2Cl)c1,6.3
20,Clc1cccc(-c2ccc(Cl)cc2Cl)c1,5.54
21,Clc1cc(Cl)cc(-c2cc(Cl)cc(Cl)c2)c1,6.6
22,Clc1ccccc1-c1cc(Cl)c(Cl)c(Cl)c1Cl,6.39
23,Clc1ccc(Cl)c(-c2c(Cl)c(Cl)c(Cl)c(Cl)c2Cl)c1Cl,7.21
24,Clc1ccc(-c2c(Cl)cc(Cl)cc2Cl)cc1,6.03

row,SMILES,logP
1,Clc1cccc(-c2cccc(Cl)c2Cl)c1Cl,5.67
2,Clc1ccc(-c2c(Cl)cc(Cl)c(Cl)c2Cl)c(Cl)c1Cl,6.99
3,Clc1ccc(-c2c(Cl)cc(Cl)c(Cl)c2Cl)cc1Cl,6.78
4,Clc1ccc(-c2c(Cl)c(Cl)c(Cl)c(Cl)c2Cl)c(Cl)c1,7.13
5,Clc1ccc(Cl)c(-c2cc(Cl)c(Cl)c(Cl)c2Cl)c1,6.75
6,Clc1ccc(-c2ccc(Cl)cc2)cc1,5.23
7,Clc1cc(Cl)c(-c2c(Cl)c(Cl)cc(Cl)c2Cl)cc1Cl,6.92
8,Clc1cc(Cl)c(Cl)c(-c2c(Cl)c(Cl)c(Cl)c(Cl)c2Cl)c1,7.43
9,Clc1ccc(-c2ccccc2Cl)cc1,5.09
10,Clc1ccc(-c2ccccc2)c(Cl)c1Cl,5.68
11,Clc1ccc(-c2cc(Cl)ccc2Cl)c(Cl)c1,5.87
12,Clc1cccc(Cl)c1-c1c(Cl)cccc1Cl,5.24
13,Clc1ccc(-c2ccc(Cl)c(Cl)c2)c(Cl)c1,5.98
14,Clc1ccc(-c2c(Cl)cccc2Cl)cc1,5.24
15,Clc1ccc(-c2ccc(Cl)c(Cl)c2)cc1,5.78
16,Clc1ccc(-c2c(Cl)ccc(Cl)c2Cl)cc1,5.76
17,Clc1cccc(-c2cc(Cl)ccc2Cl)c1,5.65
18,Clc1cc(Cl)c(-c2c(Cl)c(Cl)c(Cl)c(Cl)c2Cl)cc1Cl,7.49
19,Clc1ccccc1-c1c(Cl)cccc1Cl,5.04
20,Clc1ccc(-c2ccccc2Cl)c(Cl)c1,5.39
21,Clc1ccc(-c2ccccc2)cc1,4.63
22,Clc1ccccc1-c1ccccc1,4.42
23,Clc1cc(Cl)c(-c2ccccc2Cl)cc1Cl,5.69

# Further lines, results first:
row,logP,SMILES
1,6.78,Clc1ccc(-c2c(Cl)c(Cl)cc(Cl)c2Cl)cc1Cl
2,5.51,Clc1ccc(-c2c(Cl)cccc2Cl)c(Cl)c1
3,5.15,Clc1ccc(-c2cccc(Cl)c2)cc1
4,7.21,Clc1cc(Cl)cc(-c2c(Cl)c(Cl)c(Cl)c(Cl)c2Cl)c1
5,7.35,Clc1cc(-c2c(Cl)c(Cl)cc(Cl)c2Cl)c(Cl)c(Cl)c1Cl
6,6.85,Clc1cc(-c2c(Cl)ccc(Cl)c2Cl)c(Cl)c(Cl)c1Cl
7,7.16,Clc1cc(Cl)c(Cl)c(-c2c(Cl)c(Cl)cc(Cl)c2Cl)c1Cl
8,6.04,Clc1cc(Cl)c(-c2cccc(Cl)c2Cl)c(Cl)c1
9,7.21,Clc1cc(-c2c(Cl)cc(Cl)c(Cl)c2Cl)cc(Cl)c1Cl
10,5.79,Clc1ccccc1-c1ccc(Cl)c(Cl)c1Cl
11,6.18,Clc1ccc(-c2ccc(Cl)c(Cl)c2Cl)c(Cl)c1
12,6.43,Clc1cc(Cl)cc(-c2c(Cl)cc(Cl)cc2Cl)c1
13,5.76,Clc1ccc(-c2c(Cl)cccc2Cl)cc1Cl
14,6.45,Clc1ccc(Cl)c(-c2c(Cl)cc(Cl)c(Cl)c2Cl)c1
15,5.71,Clc1ccc(-c2ccccc2Cl)cc1Cl
16,7.21,Clc1cc(Cl)c(Cl)c(-c2cc(Cl)c(Cl)c(Cl)c2Cl)c1
17,7.62,Clc1cc(-c2c(Cl)c(Cl)c(Cl)c(Cl)c2Cl)cc(Cl)c1Cl
18,6.73,Clc1ccc(-c2c(Cl)c(Cl)cc(Cl)c2Cl)c(Cl)c1Cl
19,5.72,Clc1ccc(-c2cccc(Cl)c2Cl)c(Cl)c1
20,5.85,Clc1ccc(-c2cccc(Cl)c2Cl)cc1Cl
21,7.43,Clc1cc(-c2c(Cl)cc(Cl)c(Cl)c2Cl)c(Cl)c(Cl)c1Cl
22,5.81,Clc1cccc(-c2cc(Cl)cc(Cl)c2)c1
23,6.32,Clc1cccc(-c2cc(Cl)c(Cl)cc2Cl)c1
24,6.85,Clc1cc(Cl)c(Cl)c(-c2c(Cl)c(Cl)cc(Cl)c2Cl)c1
25,6.41,Clc1cccc(-c2c(Cl)c(Cl)cc(Cl)c2Cl)c1
26,6.63,Clc1cc(-c2c(Cl)ccc(Cl)c2Cl)cc(Cl)c1Cl
27,7.05,Clc1cc(Cl)c(-c2c(Cl)cc(Cl)c(Cl)c2Cl)cc1Cl
28,6.76,Clc1cccc(-c2cc(Cl)c(Cl)c(Cl)c2Cl)c1Cl

row,logP,SMILES
1,6.44,Clc1ccc(-c2c(Cl)cc(Cl)c(Cl)c2Cl)cc1
2,7.35,Clc1ccc(-c2c(Cl)c(Cl)c(Cl)c(Cl)c2Cl)c(Cl)c1Cl
3,7.21,Clc1cc(-c2c(Cl)c(Cl)cc(Cl)c2Cl)cc(Cl)c1Cl
4,6.06,Clc1ccccc1-c1c(Cl)c(Cl)cc(Cl)c1Cl
5,7.08,Clc1ccc(-c2c(Cl)c(Cl)c(Cl)c(Cl)c2Cl)cc1Cl
6,5.98,Clc1ccccc1-c1cc(Cl)c(Cl)c(Cl)c1
7,6.32,Clc1ccc(Cl)c(-c2cc(Cl)cc(Cl)c2Cl)c1
8,6.23,Clc1ccc(-c2c(Cl)cc(Cl)cc2Cl)c(Cl)c1
9,6.11,Clc1cc(Cl)c(-c2cc(Cl)ccc2Cl)c(Cl)c1
10,4.84,Clc1cccc(-c2c(Cl)cccc2Cl)c1Cl
11,6.1,Clc1ccc(-c2cc(Cl)cc(Cl)c2Cl)cc1
12,5.71,Clc1cc(Cl)cc(-c2ccccc2Cl)c1
13,6.92,Clc1cc(Cl)c(Cl)c(-c2c(Cl)cc(Cl)c(Cl)c2Cl)c1
14,6.58,Clc1cc(Cl)c(-c2ccc(Cl)c(Cl)c2Cl)c(Cl)c1
15,6.23,Clc1ccc(Cl)c(-c2ccc(Cl)c(Cl)c2Cl)c1
16,5.6,Clc1ccc(-c2c(Cl)cccc2Cl)c(Cl)c1Cl
17,6.78,Clc1cc(Cl)c(-c2c(Cl)c(Cl)cc(Cl)c2Cl)c(Cl)c1
18,6.92,Clc1cc(Cl)c(-c2cc(Cl)c(Cl)c(Cl)c2Cl)c(Cl)c1
19,6.45,Clc1cc(Cl)cc(-c2c(Cl)ccc(Cl)c2Cl)c1
20,6.03,Clc1cccc(-c2c(Cl)cc(Cl)cc2Cl)c1
21,4.84,Clc1ccccc1-c1c(Cl)ccc(Cl)c1Cl
22,7.77,Clc1cc(Cl)c(Cl)c(-c2c(Cl)c(Cl)c(Cl)c(Cl)c2Cl)c1Cl
23,5.94,Clc1ccc(-c2ccc(Cl)cc2Cl)c(Cl)c1
24,5.55,Clc1ccc(Cl)c(-c2c(Cl)cccc2Cl)c1
25,6.41,Clc1ccc(Cl)c(-c2c(Cl)c(Cl)cc(Cl)c2Cl)c1Cl
26,6.32,Clc1ccc(-c2cc(Cl)cc(Cl)c2Cl)c(Cl)c1
27,7.94,Clc1cc(-c2c(Cl)c(Cl)c(Cl)c(Cl)c2Cl)c(Cl)c(Cl)c1Cl
